{"source": "patent US8623899B2", "about": "“Bis-benzimidazole derivatives as hepatitis C virus inhibitors” (Janssen Research & Development Ireland, priority 2009, dated 2014)"}
{"test_system": "HCV type 1b replicon in Huh-7 luc/neo (Huh-Luc) cells", "experiment": "HCV replicon assay (Huh-Luc, luciferase readout)", "assay_type": "cell-based", "settings": "Hepatitis C virus, Huh-7, 72 h, luciferase activity, incubation of three days, read-out: HCV-REP-HUH7LUC_EC50", "description": "The compounds of formula (I) were examined for inhibitory activity in the HCV replicon. This cellular assay is based on a bicistronic expression construct, as described by Lohmann et al. (1999) Science vol. 285 pp. 110-113 with modifications described by Krieger et al. (2001) Journal of Virology 75: 4614-4624, in a multi-target screening strategy.\nIn essence, the method was as follows:\nThe assay utilized the stably transfected cell line Huh-7 luc/neo (hereafter referred to as Huh-Luc). This cell line harbors an RNA encoding a bicistronic expression construct comprising the wild type NS3-NS5B regions of HCV type 1b translated from an Internal Ribosome Entry Site (IRES) from encephalomyocarditis virus (EMCV), preceded by a reporter portion (FfL-luciferase), and a selectable marker portion (neo^R, neomycine phosphotransferase). The construct is flanked by 5′ and 3′ NTRs (non-translated regions) from HCV type 1b. Continued culture of the replicon cells in the presence of G418 (neo^R) is dependent on the replication of the HCV RNA. The stably transfected replicon cells that express HCV RNA, which replicates autonomously and to high levels, encoding inter alia luciferase, were used for screening the antiviral compounds.\nThe replicon cells were plated in 384 well plates in the presence of the test and control compounds which were added in various concentrations. Following an incubation of three days, HCV replication was measured by assaying luciferase activity (using standard luciferase assay substrates and reagents and a Perkin Elmer ViewLux™ ultraHTS microplate imager). Replicon cells in the control cultures have high luciferase expression in the absence of any inhibitor. The inhibitory activity of the compound on luciferase activity was monitored on the Huh-Luc cells, enabling a dose-response curve for each test compound. EC50 values were then calculated, which represent the amount of compound required to decrease the level of detected luciferase activity by 50%, or more specifically, to reduce the ability of the genetically linked HCV replicon RNA to replicate.", "units": {"EC50": "nM"}}
{"smiles": "CCN(CC)[C@@H](C(=O)N1CCC[C@H]1c1nc2ccc(-c3ccc(-c4ccc5nc([C@@H]6CCCN6C(=O)[C@@H](c6ccccc6)N(CC)CC)[nH]c5c4)cc3)cc2[nH]1)c1ccccc1", "note": "[Compound 17]", "EC50": 0.03}
{"smiles": "COC(=O)N[C@@H](CC(C)C)C(=O)N1CCC[C@H]1c1nc2ccc(-c3ccc(-c4ccc5nc([C@@H]6CCCN6C(=O)[C@H](CC(C)C)NC(=O)OC)[nH]c5c4)cc3)cc2[nH]1", "note": "[Compound 56]", "EC50": 0.012}
{"smiles": "COC(=O)N[C@H](C(=O)N1CCC[C@H]1c1nc2ccc(-c3ccc(-c4ccc5nc([C@@H]6CCCN6C(=O)[C@@H](NC(=O)OC)C(C)(C)C)[nH]c5c4)cc3)cc2[nH]1)C(C)(C)C", "note": "[Compound 37]", "EC50": 0.01}
{"smiles": "O=C(CCc1ccccc1F)N1CCC[C@H]1c1nc2ccc(-c3ccc(-c4ccc5nc([C@@H]6CCCN6C(=O)CCc6ccccc6F)[nH]c5c4)cc3)cc2[nH]1", "note": "[Compound 8]", "EC50": 160}
{"smiles": "O=C([C@H]1CCCO1)N1CCC[C@H]1c1nc2ccc(-c3ccc(-c4ccc5nc([C@@H]6CCCN6C(=O)[C@H]6CCCO6)[nH]c5c4)cc3)cc2[nH]1", "note": "[Compound 3]", "EC50": 20}
{"smiles": "O=C(c1ccccn1)N1CCC[C@H]1c1nc2ccc(-c3ccc(-c4ccc5nc([C@@H]6CCCN6C(=O)c6ccccn6)[nH]c5c4)cc3)cc2[nH]1", "note": "[Compound 25]", "EC50": 1.7}
{"smiles": "O=C(C(c1ccccc1)N1CCCC(F)(F)C1)N1CCC[C@H]1c1nc2ccc(-c3ccc(-c4ccc5nc([C@@H]6CCCN6C(=O)C(c6ccccc6)N6CCCC(F)(F)C6)[nH]c5c4)cc3)cc2[nH]1", "note": "(mixture of isomers) [Compound 44]", "EC50": 0.22}
{"smiles": "CCOC(=O)N[C@H](C(=O)N1CCC[C@H]1c1nc2ccc(-c3ccc(-c4ccc5nc([C@@H]6CCCN6C(=O)[C@@H](NC(=O)OCC)C(C)C)[nH]c5c4)cc3)cc2[nH]1)C(C)C", "note": "[Compound 41]", "EC50": 17}
{"smiles": "O=C([C@@H]1CCCO1)N1CCC[C@H]1c1nc2ccc(-c3ccc(-c4ccc5nc([C@@H]6CCCN6C(=O)[C@@H]6CCCO6)[nH]c5c4)cc3)cc2[nH]1", "note": "[Compound 14]", "EC50": 36}
{"smiles": "O=C(C(Nc1ccccc1)c1ccc(Cl)cc1)N1CCC[C@H]1c1nc2ccc(-c3ccc(-c4ccc5nc([C@@H]6CCCN6C(=O)C(Nc6ccccc6)c6ccc(Cl)cc6)[nH]c5c4)cc3)cc2[nH]1", "note": "(mixture of isomers) [Compound 47]", "EC50": 1.5}
{"smiles": "COC(=O)N[C@@H](C(=O)N1CCC[C@H]1c1nc2ccc(-c3ccc(-c4ccc5nc([C@@H]6CCCN6C(=O)[C@H](NC(=O)OC)C(C)C)[nH]c5c4)cc3)cc2[nH]1)C(C)C", "note": "[Compound 32]", "EC50": 6.9}
{"smiles": "O=C(Cc1cccnc1)N1CCC[C@H]1c1nc2ccc(-c3ccc(-c4ccc5nc([C@@H]6CCCN6C(=O)Cc6cccnc6)[nH]c5c4)cc3)cc2[nH]1", "note": "[Compound 12]", "EC50": 0.15}
{"smiles": "CNC(=O)N[C@H](C(=O)N1CCC[C@H]1c1nc2ccc(-c3ccc(-c4ccc5nc([C@@H]6CCCN6C(=O)[C@@H](NC(=O)NC)C(C)C)[nH]c5c4)cc3)cc2[nH]1)C(C)C", "note": "[Compound 23]", "EC50": 0.57}
{"smiles": "O=C(C(c1ccccc1)N1C2CCC1CC2)N1CCC[C@H]1c1nc2ccc(-c3ccc(-c4ccc5nc([C@@H]6CCCN6C(=O)C(c6ccccc6)N6C7CCC6CC7)[nH]c5c4)cc3)cc2[nH]1", "note": "(mixture of isomers) [Compound 43]", "EC50": 3.2}
{"smiles": "COc1cccc(CCC(=O)N2CCC[C@H]2c2nc3ccc(-c4ccc(-c5ccc6nc([C@@H]7CCCN7C(=O)CCc7cccc(OC)c7)[nH]c6c5)cc4)cc3[nH]2)c1", "note": "[Compound 6]", "EC50": 500}
